Reference: PubChem BioAssay (NCI)
Where “and” joins values, the source holds several entries; their conditions need not be identical. Equal entries are not always repeated.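 Interpolation was linear, between the two tested concentrations surrounding the appropriate level; five concentrations were tested over 48 hours in 96-well plates. GI50 marks 50% less growth. TGI denotes the concentration required for complete inhibition of growth.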

Columns and labels:
Assay in all cases: inhibition of tumour cell growth, NCI panel, 48 h
OVCAR-8 ovarian = tested on: OVCAR-8 ovarian
UO-31 renal = tested on: UO-31 renal
NCI/ADR-RES ovarian = tested on: NCI/ADR-RES ovarian
U251 CNS = tested on: U251 CNS
MCF7 breast = tested on: MCF7 breast
RXF 393 renal = tested on: RXF 393 renal
HCT-116 colon = tested on: HCT-116 colon
ACHN renal = tested on: ACHN renal
SNB-19 CNS = tested on: SNB-19 CNS
CCRF-CEM leukemia = tested on: CCRF-CEM leukemia

| SMILES | GI50 (OVCAR-8 ovarian) [µM] | TGI (OVCAR-8 ovarian) [µM] | GI50 (UO-31 renal) [µM] | TGI (UO-31 renal) [µM] | GI50 (NCI/ADR-RES ovarian) | TGI (NCI/ADR-RES ovarian) | GI50 (U251 CNS) [µM] | TGI (U251 CNS) [µM] | GI50 (MCF7 breast) [µM] | TGI (MCF7 breast) [µM] | GI50 (RXF 393 renal) [µM] | TGI (RXF 393 renal) [µM] | GI50 (HCT-116 colon) [µM] | TGI (HCT-116 colon) [µM] | GI50 (ACHN renal) [µM] | TGI (ACHN renal) [µM] | GI50 (SNB-19 CNS) [µM] | TGI (SNB-19 CNS) [µM] | GI50 (CCRF-CEM leukemia) [µM] | TGI (CCRF-CEM leukemia) [µM] |
| --- | --- | --- | --- | --- | --- | --- | --- | --- | --- | --- | --- | --- | --- | --- | --- | --- | --- | --- | --- | --- |
| CCCCCC(O)C1C(=O)OC(C)C(O)/C=C/C=C/C=C/C=C\C=C(\C)C(O)CC(O)CC(O)CC(O)CC(O)CC(O)CC1O (centres undefined) | > 100 | > 100 | > 100 | > 100 | > 100 µM | > 100 µM | > 100 | > 100 | > 100 | > 100 | > 100 | > 100 | > 100 | > 100 | > 100 | > 100 | > 100 | > 100 | > 100 | > 100 |
| C=C1C[C@](OC)([C@H](O)C(=O)N[C@@H](OC)[C@@H]2C[C@@H](O)C(C)(C)[C@@H](C[C@@H](COC)OC)O2)O[C@H](C)[C@@H]1C | 0.00322 | 0.0096 | 0.00267 | 0.0295 | 0.0141 µM and 0.0297 µM | 0.142 µM and 0.314 µM | 0.00175 | 0.00769 | – | 0.00145 | 0.00159 | 0.00465 | 0.00168 | 0.0104 | 0.00233 | 0.0114 | 0.00149 | 0.00645 | 0.0168 | 0.361 |
| CC(C)(C)[Si](C)(C)OCC1OC(n2cnc3c(NC(=O)c4ccccc4)ncnc32)CC1O (centres undefined) | – | > 100 | – | 2.96 | – | 98.7 µM | – | 51.6 | – | > 100 | – | 40.4 | – | 70.5 | – | 95.4 | – | 74.3 | – | 53.4 |
| CC(=O)Nc1ccc(Sc2ccc([N+](=O)[O-])o2)cc1 | 3.06 | 13.4 | 3.9 | 13 | 2.88 µM | 11.3 µM | 3.06 | 11 | 1.88 | 6.92 | 0.929 | 3.46 | 0.924 | 2.75 | 1.62 | 4.29 | 10.1 | 23.2 | 0.886 | 3.93 |
| O=C1C(Br)=CC2(C=C1Br)CCN=c1c2c(O)c2nc3ccccc3c3ccnc1c23 | 0.918 | 2.39 | 0.761 | 1.55 | 2.04 µM | 29.2 µM | 1.67 | 7.04 | 0.765 | 2.69 | 1.11 | 4.36 | 0.674 | 6.15 | 0.753 | 1.7 | 4.59 | 12.1 | 0.132 | 0.612 |
| O=C1OCC(c2cccs2)=C1Cl | 90.1 | > 100 | 89 | > 100 | 48.1 µM | > 100 µM | 52.9 | > 100 | 39.3 | > 100 | 53 | > 100 | > 100 | > 100 | 56.7 | > 100 | > 100 | > 100 | 84.1 | > 100 |
| O=P(O)(O)c1ccccc1 (tested in a mixture with another compound) | – | > 100 | – | > 100 | – | > 100 µM | – | > 100 | – | > 100 | – | > 100 | – | > 100 | – | > 100 | – | > 100 | – | > 100 |
| CCOc1ccc([C@@H]2[C@@H](Oc3ccccc3)C(=O)N2c2cc(OC)c(OC)c(OC)c2)cc1 | 0.0463 | > 100 | 0.613 | > 100 | 0.06 µM | > 100 µM | 0.0462 | > 100 | 0.0431 | > 100 | 0.0446 | > 100 | 0.0437 | 3.88 | 0.07 | > 100 | 0.289 | > 100 | 0.048 | > 100 |
| Cc1ccc(C2NC(=S)NC3=C2CCOc2c3ccc3ccccc23)cc1 (centres undefined) | > 100 | > 100 | > 100 | > 100 | 96.5 µM | > 100 µM | > 100 | > 100 | 32.4 | > 100 | 4.83 | > 100 | > 100 | > 100 | 44 | > 100 | > 100 | > 100 | > 100 | > 100 |
| CC(C)(C)c1nc2c(o1)C(=O)c1ccccc1C2=O | – | 3.37 | – | 6.23 | – | 1.76 µM | – | 4.6 | – | 1.35 | – | 5.54 | – | 2.87 | – | 5.69 | – | 9.81 | – | > 29.5 |
| CC(=O)N1CC(Nc2ccc(OC(F)(F)F)cc2)=CC1=O | 3.63 | > 100 | 19.4 | > 100 | 0.781 µM | 5.15 µM | 3.34 | > 100 | 0.436 | > 100 | 1.65 | 5.92 | 0.472 | 23.3 | 8.27 | > 100 | 3.22 | > 100 | 2.52 | > 100 |
| COc1ccc(/C(Cl)=C(\C=O)c2ccc([N+](=O)[O-])cc2)cc1OC | – | > 86 | – | 28.9 | – | 53.3 µM | – | 20.2 | – | 36.8 | – | 19.2 | – | 24.9 | – | 25 | – | > 100 | – | > 24.7 |
| COc1ccc(-c2ccc(/C=N/n3c(COc4ccccc4Cl)nn(CN4CCN(C)CC4)c3=S)o2)c([N+](=O)[O-])c1 | 17.3 | 42.2 | 30.1 | > 100 | 18.5 µM | 41.6 µM | 13.2 | 27.8 | 12.9 | 33.8 | 10.4 | 25 | 16.1 | 29.8 | 23.1 | 50.1 | 27.1 | > 100 | 21.7 | > 100 |
| CC(C)[C@@]12C[C@@H](OC(=O)[C@H]3CO3)[C@@](C)(O1)[C@@H]1CC[C@@H](C)[C@H]1[C@@H]2OC(=O)/C=C/c1ccccc1 | 0.434 | > 52.4 | 0.177 | 0.416 | 0.799 µM | 35.9 µM | 22.9 | > 80.6 | 9.33 | > 100 | 1.3 | 17.8 | 9.46 | > 100 | 0.108 | 3.07 | 21.6 | 74.6 | 18 | > 84.7 |
| COc1ccc(Nn2c(SCC(=O)Nc3nc(-c4ccc(Cl)cc4)cs3)nc(C)c2C)cc1 | 4.82 | > 100 | 2.62 | > 100 | 2.89 µM | > 100 µM | 4.03 | > 100 | 3.36 | 25.5 | 3.53 | 9.64 | 2.12 | 14.1 | 2.27 | 8.76 | 6.19 | > 100 | 3.82 | > 100 |
| CCCCCCCC/C=C/CCCCCCCC1=NCC[N+]1(CCO)CCO | 2.66 | 10 | 3.97 | 19.7 | 11.8 µM | 37.7 µM | 1.42 | 2.86 | 3.94 | 18.6 | 1.73 | 4.2 | 2.81 | 8.78 | 6.11 | 20.8 | 4.49 | 25.2 | 1.6 | 4.46 |
| COc1cc(NCCCCN=C(N)NC(N)=NC(C)C)c2ncccc2c1 | 8.18 | 27.7 | 99 | > 100 | > 100 µM | > 100 µM | 5.65 | 21.1 | 0.0516 | 0.327 | > 47 | > 100 | 2.26 | 11.1 | > 73.7 | > 100 | 9.86 | 26.3 | 4.57 | 27.3 |
| CC(=O)c1c(C(F)(F)F)n([O-])c2ccc(Cl)cc2[n+]1=O | 3.66 | 20.4 | 1.92 | – | 3.4 µM | > 23.1 µM | 0.772 | 4.89 | 0.216 | – | 5.11 | 25.4 | 0.662 | – | 0.69 | 4.96 | 4.75 | > 27.6 | 0.0108 | 2.22 |
| O=[N+]([O-])c1ccc(-c2nc(-c3ccccc3)c(-c3ccccc3)n2-c2ccccc2)cc1 | 3.19 | > 100 | 1.99 | 6.67 | 2.68 µM | 7.88 µM | 2.74 | 10.7 | 2.04 | 6.28 | 3.08 | 9.78 | 3.47 | 14 | 2.62 | 27.4 | 3.75 | > 48.8 | 2.83 | > 23.8 |
| N#Cc1c(-c2ccc(Cl)cc2)n(O)c2ccccc12 | 2.65 | 8.78 | 2.6 | 9.24 | 1.43 µM | 4.2 µM | 1.9 | 7.06 | 2.67 | > 100 | 1.8 | 5.84 | 2.29 | 8.69 | 3.68 | 91.2 | 2.71 | 80.4 | 3.37 | 23.2 |
| COc1ccc(NC(=O)n2nc(N)c3ccccc32)cc1OC | 39.7 | > 100 | 28.5 | > 100 | 37.6 µM | > 100 µM | 61.7 | > 100 | 29.5 | > 100 | 95.2 | > 100 | 43.5 | > 100 | 58.3 | > 100 | > 100 | > 100 | 36.7 | > 100 |
| NC(=NCCCOc1ccc(Cl)cc1)Nc1ccc(Cl)cc1 | 3.16 | 12.1 | 2.17 | 8.1 | 3.03 µM | 9.92 µM | 2.65 | 8.36 | 2.2 | 7.35 | 1.86 | 6.97 | 1.61 | 3.24 | 2.01 | 5.31 | 2.46 | 13.6 | 2.11 | 6.74 |
| CCOC(=O)c1sc2nc3sc(N=Nc4ccc(Cl)cc4)c(O)n3c(=S)c2c1C | 29.4 | 95.6 | 53.6 | > 100 | 17.4 µM | 44.6 µM | 29.1 | > 100 | 21.4 | > 100 | 20.6 | 90.4 | 33.8 | > 100 | 16.5 | 54.3 | 27.4 | > 100 | 32.2 | > 100 |
| ClC1=C(Cl)C(Cl)=C(Cl)C1=C/C=C/c1ccccc1 | 0.266 | 1.92 | 0.201 | 0.756 | 0.393 µM | – | 0.346 | 1.37 | 0.139 | 0.664 | 0.186 | 0.36 | 0.213 | 0.457 | 0.318 | 0.855 | 0.59 | 2.44 | 0.306 | – |
| NC(CSC(c1ccccc1)(c1ccccc1)c1ccc(Cl)cc1)C(=O)O (centres undefined) | 0.412 | 44.8 | 6.13 | > 83.4 | 0.712 µM | 7.3 µM | 0.0978 | 18.1 | 0.0647 | 18.9 | 0.0594 | 4.52 | 0.0476 | 11.2 | 2.6 | > 78.4 | 0.569 | 33.2 | 0.386 | 40 |
